Columns and labels:
Cbl-b (aa36-427) = molecular target: T1, Cbl-b (aa36-427) (Homo sapiens, UniProt Q13191); experiment: Co-expressed Cbl-b with BirA biochemical assay (CBLB/E2-Ub binding, HTRF); settings: 0.6 nM Cbl-b co-expressed with BirA, HTRF; read-out: co-express CBLB/E2-Ub-binding assay IC50
T1 construct: Cbl-b (aa36-427, in-house); made in house
Text: (§1) The assay in the absence of a Cbl-b/Cbl inhibitor, where phosphorylation of Cbl-b/Cbl by the Src kinase allows UbcH5B-Ub to bind to Cbl-b/Cbl and brings the Bodipy-Fluorescein tagged ubiquitin in proximity to the streptavidin-terbium bound to the N-terminal biotinylated Avi-tagged Cbl-b/Cbl. […] The lack of a FRET signal indicates Cbl-b/Cbl is inhibited by the Cbl-b/Cbl inhibitor.

Cbl (aa49-434) = molecular target: T2, Cbl (aa49-434) (Homo sapiens, UniProt P22681); experiment: Co-expressed Cbl with BirA biochemical assay (CBL/E2-Ub binding, HTRF); settings: 0.6 nM Cbl co-expressed with BirA, read-out: co-express CBL/E2-Ub-binding assay IC50
T2 construct: Cbl (aa49-434, in-house); made in house
T2 sequence (P22681 49-434): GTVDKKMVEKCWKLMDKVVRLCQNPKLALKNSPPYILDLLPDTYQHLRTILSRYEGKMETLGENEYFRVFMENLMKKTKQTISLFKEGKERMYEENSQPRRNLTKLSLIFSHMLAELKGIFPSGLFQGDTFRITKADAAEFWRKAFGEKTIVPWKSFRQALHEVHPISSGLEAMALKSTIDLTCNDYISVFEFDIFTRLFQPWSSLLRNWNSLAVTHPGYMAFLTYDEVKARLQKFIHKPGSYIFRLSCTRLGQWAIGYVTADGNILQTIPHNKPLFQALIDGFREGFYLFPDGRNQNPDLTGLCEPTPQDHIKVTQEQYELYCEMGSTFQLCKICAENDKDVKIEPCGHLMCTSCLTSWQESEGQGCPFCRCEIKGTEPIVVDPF
Text: as §1

T1 sequence (Q13191 36-427): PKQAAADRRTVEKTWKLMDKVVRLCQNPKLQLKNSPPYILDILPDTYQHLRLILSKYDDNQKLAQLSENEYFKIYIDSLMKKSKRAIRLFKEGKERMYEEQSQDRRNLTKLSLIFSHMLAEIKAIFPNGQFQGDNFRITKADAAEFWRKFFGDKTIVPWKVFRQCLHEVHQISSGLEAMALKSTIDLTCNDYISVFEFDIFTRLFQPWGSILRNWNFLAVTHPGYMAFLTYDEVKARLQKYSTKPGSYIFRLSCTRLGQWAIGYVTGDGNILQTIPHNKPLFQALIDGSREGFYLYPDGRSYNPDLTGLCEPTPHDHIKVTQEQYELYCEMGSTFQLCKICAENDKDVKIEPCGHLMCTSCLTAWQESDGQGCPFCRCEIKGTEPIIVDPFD

Row | SMILES | IC50 (Cbl-b (aa36-427)) [nM] | IC50 (Cbl (aa49-434)) [nM]
1 | C[C@H](NCc1cc(C(=O)Nc2cccc([C@]3(c4nncn4C)C[C@@H](C)C3)c2)c2ncc(F)n2c1)C1CCC1 [Compound A65, 6-((((S)-1-cyclobutylethyl)amino)methyl)-3-fluoro-N-(3-((1s,3R)-3-methyl-1-(4-methyl-4H-1,2,4-triazol-3-yl)cyclobutyl)phenyl)imidazo[1,2-a]pyridine-8-carboxamide] | 0.9 | 2
2 | Cn1cnnc1[C@]1(c2cccc(NC(=O)c3cc(CNC4(C)CCC4)cn4c(Cl)cnc34)c2)C[C@H](C)C1 [Compound A66, 3-chloro-N-(3-((1s, 3s)-3-methyl-1-(4-methyl-4H-1,2,4-triazol-3-yl)cyclobutyl)phenyl)-6-(((1-methylcyclobutyl)amino)methyl)imidazo[1,2-a]pyridine-8-carboxamide] | 1.1 | 3.4
3 | Cn1cnnc1[C@]1(c2cccc(NC(=O)c3cc(CNC4(C)CC4)cn4c(Cl)cnc34)c2)C[C@H](C)C1 [Compound A67, 3-chloro-N-(3-((1s, 3s)-3-methyl-1-(4-methyl-4H-1,2,4-triazol-3-yl)cyclobutyl)phenyl)-6-(((1-methylcyclopropyl)amino)methyl)imidazo[1,2-a]pyridine-8-carboxamide] | 0.5 | 2.8
4 | Cn1cnnc1[C@]1(c2cccc(NC(=O)c3cc(CNCC4CCCC4)cn4c(Cl)cnc34)c2)C[C@H](C)C1 [Compound A68, 3-chloro-6-(((cyclopentylmethyl)amino)methyl)-N-(3-((1s, 3s)-3-methyl-1-(4-methyl-4H-1,2,4-triazol-3-yl)cyclobutyl)phenyl)imidazo[1,2-a]pyridine-8-carboxamide] | 0.9 | 2.9
5 | C[C@H](NCc1cc(C(=O)Nc2cccc([C@]3(c4nncn4C)C[C@@H](C)C3)c2)c2ncc(Cl)n2c1)C1CCC1 [Compound A69, 3-chloro-6-((((S)-1-cyclobutylethyl)amino)methyl)-N-(3-((1s,3R)-3-methyl-1-(4-methyl-4H-1,2,4-triazol-3-yl)cyclobutyl)phenyl)imidazo[1,2-a]pyridine-8-carboxamide] | 0.8 | 1.7
6 | C[C@H](NCc1cc(C(=O)Nc2cccc([C@]3(c4nncn4C)C[C@@H](C)C3)c2)c2nccn2c1)C1CCC1 [Compound A70, 6-((((S)-1-cyclobutylethyl)amino)methyl)-N-(3-((1s,3R)-3-methyl-1-(4-methyl-4H-1,2,4-triazol-3-yl)cyclobutyl)phenyl)imidazo[1,2-a]pyridine-8-carboxamide] | 1.1 | 4.1
7 | Cn1cnnc1[C@]1(c2cncc(NC(=O)c3cc(CNCC4CCC4)cn4c(F)cnc34)c2)C[C@H](C)C1 [Compound A71, 6-{[(cyclobutylmethyl)amino]methyl}-3-fluoro-N-{5-[(1r, 3s)-3-methyl-1-(4-methyl-1,2,4-triazol-3-yl)cyclobutyl]pyridin-3-yl}imidazo[1,2-a]pyridine-8-carboxamide] | 0.6 | 0.9
8 | C[C@H](NCc1cc(C(=O)Nc2cncc([C@]3(c4nncn4C)C[C@@H](C)C3)c2)c2ncc(F)n2c1)C1CC1 [Compound A72, 6-({[(1S)-1-cyclopropylethyl]amino}methyl)-3-fluoro-N-{5-[(1r, 3s)-3-methyl-1-(4-methyl-1,2,4-triazol-3-yl)cyclobutyl]pyridin-3-yl}imidazo[1,2-a]pyridine-8-carboxamide] | 0.4 | 0.6
9 | Cn1cnnc1[C@]1(c2cncc(NC(=O)c3cc(CNC4(C)CC4)cn4c(Cl)cnc34)c2)C[C@H](C)C1 [Compound A73, 3-chloro-N-(5-((1s, 3s)-3-methyl-1-(4-methyl-4H-1,2,4-triazol-3-yl)cyclobutyl)pyridin-3-yl)-6-(((1-methylcyclopropyl)amino)methyl)imidazo[1,2-a]pyridine-8-carboxamide] | 1.2 | 2.8
10 | Cn1cnnc1[C@]1(c2cncc(NC(=O)c3cc(CNC4(C)CC4)cn4c(F)cnc34)c2)C[C@H](C)C1 [Compound A74, 3-fluoro-N-(5-((1s, 3s)-3-methyl-1-(4-methyl-4H-1,2,4-triazol-3-yl)cyclobutyl)pyridin-3-yl)-6-(((1-methylcyclopropyl)amino)methyl)imidazo[1,2-a]pyridine-8-carboxamide] | 1.2 | 4.2
11 | Cn1cnnc1[C@]1(c2cncc(NC(=O)c3cc(CNC4(C)CC4)cn4ccnc34)c2)C[C@H](C)C1 [Compound A75, N-(5-((1s, 3s)-3-methyl-1-(4-methyl-4H-1,2,4-triazol-3-yl)cyclobutyl)pyridin-3-yl)-6-(((1-methylcyclopropyl)amino)methyl)imidazo[1,2-a]pyridine-8-carboxamide] | 1.7 | 5.5
12 | Cn1cnnc1[C@]1(c2cncc(NC(=O)c3cc(CNC4(C)CCC4)cn4c(F)cnc34)c2)C[C@H](C)C1 [Compound A76, 3-fluoro-N-(5-((1s, 3s)-3-methyl-1-(4-methyl-4H-1,2,4-triazol-3-yl)cyclobutyl)pyridin-3-yl)-6-(((1-methylcyclobutyl)amino)methyl)imidazo[1,2-a]pyridine-8-carboxamide] | 2.6 | 8.3
13 | C[C@H](NCc1cc(C(=O)Nc2cncc([C@]3(c4nncn4C)C[C@@H](C)C3)c2)c2ncc(Cl)n2c1)C1CC1 [Compound A77, 3-chloro-6-((((S)-1-cyclopropylethyl)amino)methyl)-N-(5-((1s,3R)-3-methyl-1-(4-methyl-4H-1,2,4-triazol-3-yl)cyclobutyl)pyridin-3-yl)imidazo[1,2-a]pyridine-8-carboxamide] | 0.4 | 1.2
14 | CC(C)CNCc1cc(C(=O)Nc2cncc([C@]3(c4nncn4C)C[C@@H](C)C3)c2)c2nccn2c1 [Compound A78, 6-((isobutylamino)methyl)-N-(5-((1s, 3s)-3-methyl-1-(4-methyl-4H-1,2,4-triazol-3-yl)cyclobutyl)pyridin-3-yl)imidazo[1,2-a]pyridine-8-carboxamide] | 1.2 | 2.3
15 | CC(C)CNCc1cc(C(=O)Nc2cncc([C@]3(c4nncn4C)C[C@@H](C)C3)c2)c2ncc(F)n2c1 [Compound A79, 3-fluoro-6-((isobutylamino)methyl)-N-(5-((1s, 3s)-3-methyl-1-(4-methyl-4H-1,2,4-triazol-3-yl)cyclobutyl)pyridin-3-yl)imidazo[1,2-a]pyridine-8-carboxamide] | 0.73 | 1.4
16 | Cc1cnc2c(C(=O)Nc3cncc([C@]4(c5nncn5C)C[C@@H](C)C4)c3)cc(CNC3(C)CCC3)cn12 [Compound A80, 3-methyl-N-(5-((1s, 3s)-3-methyl-1-(4-methyl-4H-1,2,4-triazol-3-yl)cyclobutyl)pyridin-3-yl)-6-(((1-methylcyclobutyl)amino)methyl)imidazo[1,2-a]pyridine-8-carboxamide] | 2 | 13
17 | Cn1cnnc1[C@]1(c2cncc(NC(=O)c3cc(CNC4(C)CCC4)cn4ccnc34)c2)C[C@H](C)C1 [Compound A81, N-(5-((1s, 3s)-3-methyl-1-(4-methyl-4H-1,2,4-triazol-3-yl)cyclobutyl)pyridin-3-yl)-6-(((1-methylcyclobutyl)amino)methyl)imidazo[1,2-a]pyridine-8-carboxamide] | 1.8 | 8.2
18 | Cn1cnnc1[C@]1(c2cncc(NC(=O)c3cc(CNC4(C)CCC4)cn4c(Cl)cnc34)c2)C[C@H](C)C1 [Compound A82, 3-chloro-N-(5-((1s, 3s)-3-methyl-1-(4-methyl-4H-1,2,4-triazol-3-yl)cyclobutyl)pyridin-3-yl)-6-(((1-methylcyclobutyl)amino)methyl)imidazo[1,2-a]pyridine-8-carboxamide] | 0.7 | 1.8
19 | CC(C)CNCc1cc(C(=O)Nc2cncc([C@]3(c4nncn4C)C[C@@H](C)C3)c2)c2ncc(Cl)n2c1 [Compound A83, 3-chloro-6-((isobutylamino)methyl)-N-(5-((1s, 3s)-3-methyl-1-(4-methyl-4H-1,2,4-triazol-3-yl)cyclobutyl)pyridin-3-yl)imidazo[1,2-a]pyridine-8-carboxamide] | 1 | 1.7
20 | Cn1cnnc1[C@]1(c2cccc(NC(=O)c3cc(CNC4(C)CC4)cn4cc(F)nc34)c2)C[C@H](CC#N)C1 [Compound A84, N-(3-((1s, 3s)-3-(cyanomethyl)-1-(4-methyl-4H-1,2,4-triazol-3-yl)cyclobutyl)phenyl)-2-fluoro-6-(((1-methylcyclopropyl)amino)methyl)imidazo[1,2-a]pyridine-8-carboxamide] | 0.5 | 12
21 | CCn1cnnc1[C@]1(c2cccc(NC(=O)c3cc(CNC4(C)CC4)cn4ccnc34)c2)C[C@H](C)C1 [Compound A85, N-(3-((1s, 3s)-1-(4-ethyl-4H-1,2,4-triazol-3-yl)-3-methylcyclobutyl)phenyl)-6-(((1-methylcyclopropyl)amino)methyl)imidazo[1,2-a]pyridine-8-carboxamide] | 3.4 | 26
